In patent US20180110711A1, “METHOD OF ENHANCING HAIR GROWTH” (Allergan, Inc., priority 2011, published 2018):

How the values were obtained:
[1] = system: mouse model of hair growth; experiment: Mouse model of hair growth, Study 10-06 (Test Two); assay type: in vivo
Text: FIGS. 6 through 8 show the results of a separate testing (Test Two) of synergistic composition of the invention in the same mouse model of hair growth, with FIG. 6 being the Vehicle, FIG. 7 being 0.03% Bimatoprost, alone, and FIG. 8 being the synergistic composition, i.e. 0.03% Bimatoprost and 5% Rogaine (minoxidil).

[2] = system: mouse model for hair growth; experiment: Mouse model for hair growth, Study 10-04 (Test One); assay type: in vivo; conditions: compared with vehicle or single agents
Text: A comparison of topical compositions comprising bimatoprost or minoxidil, alone, and the combination of bimatoprost and minoxidil, in a single composition, with the vehicle, for onset of hair growth and full hair growth, in a mouse model for hair growth, gave the results summarized in Table 1, below, and FIG. 5.

Structure (SMILES)	full hair growth (in words, comparison) ([1]; compared with vehicle)	onset of hair growth (in words, comparison) ([1]; compared with vehicle or bimatoprost alone)	full hair growth (in words, comparison) [2]	onset of hair growth (in words, comparison) [2]
CCNC(=O)CCC/C=C\C[C@@H]1[C@@H](/C=C/[C@@H](O)CCc2ccccc2)[C@H](O)C[C@@H]1O [BIMATOPROST 0.03%, cyclopentane N-ethyl heptanamide-5-cis-2-(3α-hydroxy-5-phenyl-1-trans-pentenyl)-3,5-dihydroxy, [1α,2α,3α,5α]]	did not obtain the result of full hair growth faster then the vehicle	faster onset of hair growth	did not obtain the result of full hair growth faster then the vehicle	faster onset of hair growth
Nc1cc(N2CCCCC2)nc(N)[n+]1[O-] [MINOXIDIL 5%, minoxidil]			did not obtain the result of full hair growth faster then the vehicle	faster onset of hair growth
